{
  "source": "patent US20210177722A1",
  "about": "“Phytic Acid Ester Derivative” (NATIONAL UNIVERSITY CORPORATION KUMAMOTO UNIVERSITY, priority 2018, published 2021)",
  "key": {"[1]": {"tested_on": "MT-2 cell (HTLV transformed human T cell leukemia cell)", "experiment": "MTT assay, MT-2 cell", "type": "cell-based", "settings": "1 μM or 10 μM, 8 hours or 24 hours", "experimental": "In this example, the cytotoxic effect of Pro-IP6 on four types of blood cancer cell lines and a cell derived from a healthy person was examined by MTT assay. […] It is possible to check viability of cultured cells by MTT assay. Cancer cell lines (1.74×10^4 cells/well, culture fluid: 200 μL) • MT-2 cell (HTLV transformed human T cell leukemia cell) • […] cell (human T-lymphoblastoid cell) • Jurkat cell (human T-lymphocyte cell) • K562 cell (chronic myelogenous leukemia cell) Each of the above-described types of cells was seeded in a 96-well plate, and was cultured for 8 hours for each of the various cancer cell lines and for 16 hours for PMBC. Thereafter, DMSO (1%, Fujifilm Wako Pure Chemical Corporation), an aqueous solution (1%) of IP6 (final concentration: 1 μM or 10 μM, Sigma Aldrich), or a DMSO solution (1%) of Pro-IP6 (final concentration: 1 μM or 10 μM) was added thereto, followed by culturing for 8 hours or 24 hours. An MTT reagent (Dojindo Laboratories, 1.1 mg/mL) was added in an amount of 50 μL per well, and the resultant was cultured for another 4 hours. The thus precipitated crystal was collected, a supernatant was removed, and 100 μL of DMSO was added thereto to completely dissolve. The resultant solution was measured for an absorbance (550 nm)."}, "Jurkat cell": {"tested_on": "Jurkat cell", "experiment": "Cell viability test (flowcytometry, Annexin V-FITC / 7-AAD)", "type": "cell-based, human", "settings": "10 μM, 24 hours", "experimental": "In this example, a cell viability test (flowcytometry) was performed using a Jurkat cell, that is, a human T cell-derived leukemia cell. Jurkat cells (1×10^5 cells/well, culture fluid: 500 μL) were seeded in a 24-well plate (Iwaki) to be cultured overnight. Thereafter, DMSO (1%, Fujifilm Wako Pure Chemical Corporation), an aqueous solution (1%) of IP6 (final concentration: 10 μM, Sigma Aldrich), or a DMSO solution (1%) of Pro-IP6 (myo-inositol hexaphosphate dodecakis(butyryloxymethyl) ester (4) synthesized in Example 1) (final concentration: 10 μM) was added thereto, and the resultant was cultured for 24 hours. A supernatant was removed, the resultant was washed with 1× PBS (−) once, 100 μL of 5× binding solution (PromoCell) was added thereto, and Annexin V-FITC (PromoCell) and 7-AAD (Becton, Dickinson and Company) were added thereto to perform a reaction for 15 minutes. Thereafter, measurement was performed using FACS Calibur (Becton, Dickinson and Company), and analysis was performed using FlowJo (Becton, Dickinson and Company)."}, "virus protein Gag": {"biological_target": "T1, virus protein Gag (Human immunodeficiency virus type 1 group M subtype B, UniProt P12493)", "T1 construct": "aggregation of virus protein Gag or the MA region thereof; Venus; FLAG (C); expressed in transfected cells; host or cells: HeLa cells", "experiment": "Intracellular aggregation of virus protein Gag (fluorescence microscope)", "type": "cell-based", "settings": "HeLa cells, 10 μM, 4 hours", "experimental": "HeLa cells (0.5×10^5 cells/well, culture fluid: 300 μL) were seeded in a 8-well chamber slide (Thermo fisher scientific) to be cultured overnight. […] (Thermo fisher scientific) was used to introduce pUC or pEF-Gag(p17)cFLAG, pNL4-3/Gag-Venus, and the resultant was cultured for 10 hours. Thereafter, DMSO (1%, Fujifilm Wako Pure Chemical Corporation) or Pro-IP6 (final concentration: 10 μM) was added thereto, followed by culturing for another 4 hours. The thus obtained cells were fixed with 4% paraformaldehyde (Tokyo Chemical Industry Co., Ltd.), dyed with Hoechst 33342 (Thermo fisher scientific), and observed with a fluorescence microscope, BZ-X800 (Keyence)."}},
  "data": [
    {"compound": "CCCC(=O)OCOP(=O)(OCOC(=O)CCC)O[C@H]1[C@H](OP(=O)(OCOC(=O)CCC)OCOC(=O)CCC)[C@@H](OP(=O)(OCOC(=O)CCC)OCOC(=O)CCC)[C@H](OP(=O)(OCOC(=O)CCC)OCOC(=O)CCC)[C@@H](OP(=O)(OCOC(=O)CCC)OCOC(=O)CCC)[C@H]1OP(=O)(OCOC(=O)CCC)OCOC(=O)CCC", "note": "[Pro-IP6, myo-inositol hexaphosphate dodecakis(butyryloxymethyl) ester]", "values": [
      {"measurement": "lowering of relative cell viability", "setting": "[1]", "result": "≥ 25", "unit": "%"},
      {"measurement": "induction of apoptosis (Annexin V-FITC / 7-AAD flow cytometry)", "setting": "Jurkat cell", "result": "induction of apoptosis in a Jurkat cell, that is, human T cell-derived leukemia cell, was observed"},
      {"measurement": "aggregation of virus protein Gag or MA region in cell", "setting": "virus protein Gag", "result": "aggregated"}
    ]}
  ]
}
